In the supplement of paper PMC10307832:

Columns and labels:
Assay in all cases: relative viability (nuclei count vs DMSO), 5 days (fraction); higher = more cells survive
[1] = compound: CN(C)C[C@@H]1CCn2cc(c3ccccc32)C2=C(C(=O)NC2=O)c2cn(c3ccccc23)CCO1 [Ruboxistaurin] + CC1(C)CCC(c2ccc(Cl)cc2)=C(CN2CCN(c3ccc(C(=O)NS(=O)(=O)c4ccc(N[C@H](CCN5CCOCC5)CSc5ccccc5)c(S(=O)(=O)C(F)(F)F)c4)cc3)CC2)C1 [Navitoclax] (partner 0.5 µM)
In short: (§1)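 The day after seeding in 1536-well plates, lung cancer cell lines were treated by pin tool with a single drug, or with a fixed anchor-drug dose together with five library-drug doses (not always all listed) in √10 steps. After 5 days, a combined fix-and-stain solution (final 0.05% Triton X-100, 1% formaldehyde, 1 ug/ml Hoechst) was added. Nuclei counted on 4× images gave relative viability as treated counts over vehicle counts, reported as the median of duplicate plates.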

[2] = compound: CN(C)C[C@@H]1CCn2cc(c3ccccc32)C2=C(C(=O)NC2=O)c2cn(c3ccccc23)CCO1 [Ruboxistaurin] + Cc1nc(Nc2ncc(C(=O)Nc3c(C)cccc3Cl)s2)cc(N2CCN(CCO)CC2)n1 [Dasatinib] (partner 0.075 µM)
In short: as §1

[3] = compound: CN(C)C[C@@H]1CCn2cc(c3ccccc32)C2=C(C(=O)NC2=O)c2cn(c3ccccc23)CCO1 [Ruboxistaurin] + COc1cc2c(Oc3ccc(NC(=O)C4(C(=O)Nc5ccc(F)cc5)CC4)cc3F)ccnc2cc1OCCCN1CCOCC1 [Foretinib] (partner 0.25 µM)
In short: as §1

[4] = compound: CN(C)C[C@@H]1CCn2cc(c3ccccc32)C2=C(C(=O)NC2=O)c2cn(c3ccccc23)CCO1 [Ruboxistaurin] + Nc1ncn([C@H]2C[C@H](O)[C@@H](CO)O2)c(=O)n1 [Decitabine] (partner 2 µM)
In short: as §1

Ruboxistaurin + Olaparib = compound: CN(C)C[C@@H]1CCn2cc(c3ccccc32)C2=C(C(=O)NC2=O)c2cn(c3ccccc23)CCO1 [Ruboxistaurin] + O=C(c1cc(Cc2n[nH]c(=O)c3ccccc23)ccc1F)N1CCN(C(=O)C2CC2)CC1 [Olaparib] (partner 8 µM)
In short: as §1

Cell Line	relative viability ([1]; first compound 0.08 µM)	relative viability ([1]; first compound 0.8 µM)	relative viability ([1]; first compound 2.53 µM)	relative viability ([1]; first compound 8 µM)	relative viability ([2]; first compound 0.08 µM)	relative viability ([2]; first compound 0.8 µM)	relative viability ([2]; first compound 2.53 µM)	relative viability ([2]; first compound 8 µM)	relative viability ([3]; first compound 0.08 µM)	relative viability ([3]; first compound 0.8 µM)	relative viability ([3]; first compound 2.53 µM)	relative viability ([3]; first compound 8 µM)	relative viability ([4]; first compound 0.08 µM)	relative viability ([4]; first compound 0.8 µM)	relative viability ([4]; first compound 2.53 µM)	relative viability ([4]; first compound 8 µM)	relative viability (Ruboxistaurin + Olaparib; first compound 0.08 µM)	relative viability (Ruboxistaurin + Olaparib; first compound 0.8 µM)	relative viability (Ruboxistaurin + Olaparib; first compound 2.53 µM)	relative viability (Ruboxistaurin + Olaparib; first compound 8 µM)
EMC-BAC-2	1.28	1.08	1.11	1.05	0.328	0.262	0.256	0.138	1.03	0.872	1.03	0.51	0.968	0.949	0.979	0.842	0.509	0.453	0.463	0.481
PC-14	1.03	0.988	1.02	1.08	0.269	0.221	0.281	0.0895	1.01	0.87	1	0.984	0.283	0.203	0.293	0.295	0.246	0.302	0.364	0.256
NCI-H520	1.24	0.984	1.19	0.955	0.195	0.157	0.176	0.129	0.628	0.693	1.05	0.786	0.535	0.477	0.544	0.612	0.321	0.341	0.328	0.291
NCI-H1755	1.05	0.934	0.963	0.962	0.455	0.387	0.402	0.346	0.907	0.903	0.908	0.888	0.731	0.678	0.691	0.778	0.974	0.853	0.846	0.775
NCI-H2087	1.24	0.866	1.17	0.957	0.889	0.783	0.835	0.701	1.2	0.934	1.07	0.876	0.243	0.21	0.241	0.263	0.601	0.62	0.692	0.57
NCI-H2023	0.973	0.837	0.947	0.89	0.579	0.453	0.523	0.439	1.22		0.787	0.693	0.214	0.214	0.254	0.256	0.519	0.458	0.447	0.296
NCI-H2085	1.27	1.1	1.27	1.26	0.204	0.254	0.294	0.219	0.878	0.757	1.28	1.12	0.485	0.534	0.67	0.667	0.808	0.703	0.769	0.909
LCLC-97TM1	0.672		0.332	0.411	0.891	0.896	0.968	0.821	0.863	0.891	0.923	0.825	0.179	0.191	0.278	0.231	0.355	0.334	0.352	0.341
NCI-H2126	0.914	0.78	0.844	0.794	0.697	0.557	0.611	0.539	1.14	1.13	1.2	1.12	0.586	0.581	0.562	0.552	0.888	0.887	0.915	0.936
201T	1.21	1.18	1.24	1.25	0.572	0.536	0.603	0.559	1.17	1.02	1.19	0.995	0.858	0.834	0.824	0.914	0.821	0.837	0.852	0.909
NCI-H1915	0.811	0.752	0.765	0.867	0.308	0.286	0.267	0.224	1.05	1.03	1.02	0.899	0.252	0.262	0.277	0.268	0.241	0.26	0.268	0.25
BEN	0.0424	0.0646	0.0707	0.114	0.316	0.297	0.307	0.298	0.725	0.722	0.712	0.49	0.815	0.698	0.724	0.549	1.31	0.903	1.34	0.888
NCI-H2347	0.871	0.707	0.749	0.786	0.683	0.272	0.283	0.229	0.951	0.798	1.05	0.763	0.648	0.58	0.626	0.664	0.636	0.614	0.581	0.451
H3255	0.548	0.438	0.519	0.478	0.495	0.353	0.347	0.335	0.849	0.867	0.879	0.876	0.608	0.54	0.603	0.538	0.613	0.574	0.592	0.655
NCI-H441	0.682	0.464	0.928	0.66	0.538	0.525	0.494	0.577	0.87	0.884	1.18	0.938	0.278	0.309	0.277	0.269	0.498	0.532	0.643	0.643
NCI-H1975	1.2	1.04	1.25	0.996	0.381	0.278	0.291	0.257	0.979	1.03	1.05	0.856	0.43	0.346	0.393	0.42	0.882	0.784	0.788	0.713
